# In patent publication US9669049B2, “Compositions comprising gamma retrovirus vectors and methods of treating proliferative disorders” (Tocagen Inc., priority 2010, dated 2017):
# Read-outs that look alike come from different tables or passages of the source.
# B1: IFNβ: Recombinant mouse IFNβ (PBL Interferon Source) (protein, UniProt P01575 22-182, looked up)
# Interferon beta: INYKQLQLQERTNIRKCQELLEQLNGKINLTYRADFKIPMEMTEKMQKSYTAFAIQEMLQNVFLVFRNNFSSTGWNETIVVRLLDELHQQTVFLKTVLEEKQEERLTWEMSSTALHLKSYYWRVQRYLKLMKYNSYAWMVVRAEIFRNFLIIRRLTRNFQN
# Tests used:
# [1] = test system: intracranial tumor models; assay: In vivo screening, IC tumor model; details: mouse
# [2] = test system: cultured human glioma cells; assay: Initial viral spread in cultured human glioma cells by flow cytometric analysis; format: cell-based
# TLR3, 7, 8, 9 = details: cited from earlier work
# [3] = test system: recurrent anaplastic oligodendroglioma; assay: Patient dog with spontaneous recurrent malignant glioma; format: in vivo; details: second cycle, 160 mg/kg/day, after fifth day
# Method: The tumor measured approximately 13 cm^3, and caused major lateral ventricle compression and significant midline shift. […] ProHance® (gadoteridol) was added to Toca 511 prior to injection to allow visualization of delivery by MRI. The volume of distribution of the vector was estimated to be approximately 10-12% of the tumor volume.
# The dog was treated with 5-FC at a divided dose of 130 mg/kg/day, by mouth, three times daily with food for 5 days. The dose was increased to 160 mg/kg/day for 2 more days (7 days of 5-FC total). […] After 21 days of viral spread, a second cycle of 5-FC was initiated at the higher dose of 160 mg/kg/day (divided, three times a day with food).
# The subject became more alert, active and remained clinically stable 13 weeks after injection of vector. The subject succumbed to a gastro-intestinal bleed at 15+ weeks, related to the extended administration of high dose steroids, and unrelated to the tumor. The estimated lifespan of the dog was no more than 3-4 weeks at the time of initial injection of the vector.
# parental CT26 cells = assay: Viral replication kinetics in CT26 cells with exogenous IFNα; details: 1,340 units/mL daily; MOI 0.1 and 1
# T98G = details: 0.1 and 1 μM, 28 days
# U-87MG = details: 0.1 and 1 μM, 28 days
# Tu2449 cells = assay: Bortezomib plus vector, intracranial Tu2449 glioma survival; format: in vivo, mouse; details: Bortezomib 1 mg/kg IP every 7 days; vector 6.3E4 TU/g IC; 5-FC cycles
# Method: On Day 0 and every 7 days, Groups 3 and 4 received Bortezomib treatment (1 mg/kg; 25 μg/mouse) IP. […] Survival was assessed for at least 4 cycles.
# [4] = test system: cultured human plasmacytoid dendritic cells; assay: IFN production after in vitro stimulation of cultured human plasmacytoid dendritic cells; format: cell-based; parameters: key: +: positive or negative effects have been observed; −: positive or negative effects have been observed
# [5] = test system: cultured human glioma cells; format: cell-based; parameters: key: +: positive or negative effects have been observed
# [6] = Pilot study of white blood cell count suppression; format: in vivo; details: 400 mg/kg SC
# Method: (§1) Dosing Procedures. For Group 3 only, methylprednisolone acetate (Depo-Medrol), 400 mg/kg, was administered subcutaneously (SC) at day −3.
# [7] = Vector copies in tissues after intracranial injection with or without steroid; format: in vivo, mouse; details: right cerebrum, day 10; p<0.0001
# Method: as §1
# Toca 511 or vehicle was administered by stereotaxic injection into the right frontal lobe. After anesthetizing the mice and preparing the skull, a small burr hole was drilled through the bone at coordinates AP=+0.5 mm and ML=−2.5 mm from bregma. […] After a hold of 5 minutes, the syringe was withdrawn, the hole sealed with bone wax, the skin closed, and the animal recovered from surgery. To minimize discomfort, ketoprofen was administered SC.
# Tissue collection. On day 10, all animals were euthanized and selected tissues and fluids collected using disposable equipment to minimize possible cross-contamination of vector negative by vector positive tissues. […] Assays were performed in triplicate.
# parental Tu2449 cells = assay: Viral replication kinetics in Tu2449 cells with exogenous IFNβ; details: 500 units/mL daily; MOI 0.1 and 1
molecule,measurement,setting,value
CCc1c2c(nc3ccc(OC(=O)N4CCC(N5CCCCC5)CC4)cc13)-c1cc3c(c(=O)n1C2)COC(=O)[C@]3(O)CC [Irinotecan],Outcome summary IC tumor model,[1],No survival improvement
C#Cc1cccc(Nc2ncnc3cc(OC)c(OCCCCCCC(=O)NO)cc23)c1 [CUDU-101],Efficacy,[2],−
CCN(CC)CCCC(C)Nc1ccnc2cc(Cl)ccc12 (centres unmarked) [Chloroquine],IC50,"TLR3, 7, 8, 9; read-out: Dosage/IC50, head does not say whether dosage or IC50",20 µM
same,Dosage/IC50,"TLR3, 7, 8, 9; same value in mass units",10 µg/mL
"Nc1nc(=O)[nH]cc1F [5-FC, 5-fluorocytosine]",adverse event stopping the drug,[3],development of rash
IFNα,effect on viral spread (% GFP positive cells),parental CT26 cells,attenuates viral spread
CC#C[C@]1(O)CC[C@H]2[C@@H]3CCC4=CC(=O)CCC4=C3[C@@H](c3ccc(N(C)C)cc3)C[C@@]21C [Mifepristone],Efficacy,[2],+
same,activity or benefit observed in the screening experiments,RRV,activity was observed
C[C@@H]1C[C@H]2[C@@H]3CCC4=CC(=O)C=C[C@]4(C)[C@@]3(F)[C@@H](O)C[C@]2(C)[C@@]1(O)C(=O)CO [Dexamethasone],Efficacy,[2],+
same,cell toxicity,T98G,No cell toxicity was observed
same,cell toxicity,U-87MG,No cell toxicity was observed
CCN(CC)Cc1ccc2cc(COC(=O)Nc3ccc(C(=O)NO)cc3)ccc2c1 [ITF2357],Efficacy,[2],−
CC(C)C[C@H](NC(=O)[C@H](Cc1ccccc1)NC(=O)c1cnccn1)B(O)O [Bortezomib],activity or benefit observed in the screening experiments,RRV,activity was observed
same,"survival of Bortezomib and vector compared to vector, vehicle, or Bortezomib alone",Tu2449 cells,statistically significant survival advantage
same,Efficacy,[4],+
Nc1ccccc1NC(=O)c1ccc(CNC(=O)OCc2cccnc2)cc1 [MS-275],Efficacy,[2],−
same,activity or benefit observed in the screening experiments,RRV,activity was observed
same,Efficacy,[5],+
CC(=O)OCC(=O)[C@@]1(O)CC[C@H]2[C@@H]3C[C@H](C)C4=CC(=O)C=C[C@]4(C)[C@H]3[C@@H](O)C[C@@]21C [methylprednisolone acetate],duration of white blood cell count suppression below normal range,[6],at least 10 days
same,increase of vector copies with steroids over no steroid,[7],more than 40 fold
O=C(NCCCNc1nc(Nc2cccc(NC(=O)N3CCCC3)c2)ncc1I)c1cccs1 [BX795],activity or benefit observed in the screening experiments,RRV,activity was observed
same,Efficacy,[5],+
O=C1Nc2ccc3ncsc3c2/C1=C/c1cnc[nH]1 [Imidazolo-oxindole],Efficacy,[2],−
Cc1cc(Cl)ccc1OCCCC(=O)NO [Droxinostat],Efficacy,[2],−
N#CCNC(=O)c1ccc(-c2ccnc(Nc3ccc(N4CCOCC4)cc3)n2)cc1 [Cyt387],Efficacy,[2],−
B1,effect on viral spread (% GFP positive cells),parental Tu2449 cells,attenuates viral spread
